Source: patent US4486593A, “2-,3-, or 4-Pyridinylmethylamino arylic acids as thromboxane A2 synthetase and 5-lipoxygenase inhibitors” (The Upjohn Company, priority 1983, dated 1984)

Test system: 5-lipoxygenase
Assay: 5-lipoxygenase inhibition: oxygen uptake of washed human platelets after arachidonic acid (oxygraph cells)
Type: cell-based
Conditions: arachidonic acid added to washed human platelets; oxygen uptake versus control cell; read-out: approximate ED50, 5-lipoxygenase inhibition (decrease of oxygen uptake)
Description: The compounds of the present invention were also tested for 5-lipoxygenase inhibition. Arachidonic acid is added to washed human platlets and the oxygen uptake is measured using oxygraph cells. A decrease of oxygen uptake versus the control cell indicates inhibition of lipoxygenase. For a fuller description of the procedure see, Wallach, et al., Biochim. Biophys. Acta. 231:445 (1976).

- IC50: ~10 µM
SMILES: COC(=O)c1cc(NCc2cccnc2)ccc1O [Example 3, 5-(3-Pyridinylmethylamino)salicylic Acid, Methyl Ester]
